Source: the supplement of paper PMC10307832

Legend:
Assay in all cases: relative viability (nuclei count vs DMSO), 5 days (fraction); higher = more cells survive
[1] = compound: Cc1ccc(NC(=O)c2ccc(CN3CCN(C)CC3)cc2)cc1Nc1nccc(-c2cccnc2)n1 [Imatinib] + O=C(CCCCCCC(=O)Nc1ccccc1)NO [Vorinostat] (partner 1 µM)
Method in brief: (§1)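 Values are medians from duplicate plates. Each reflects relative viability, defined as the nuclei count of treated wells over that of vehicle wells. Lung cancer cell lines in 1536-well plates were pin-tool dosed one day after seeding with one drug alone or with a fixed anchor-drug dose plus five library-drug doses (not always all listed) in √10 steps, then fixed, stained and imaged at 4× after 5 days.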

[2] = compound: Cc1ccc(NC(=O)c2ccc(CN3CCN(C)CC3)cc2)cc1Nc1nccc(-c2cccnc2)n1 [Imatinib] + CS(=O)(=O)N1CCN(Cc2cc3nc(-c4cccc5[nH]ncc45)nc(N4CCOCC4)c3s2)CC1 [Pictilisib] (partner 1 µM)
Method in brief: as §1

[3] = compound: Cc1ccc(NC(=O)c2ccc(CN3CCN(C)CC3)cc2)cc1Nc1nccc(-c2cccnc2)n1 [Imatinib] + CS(=O)(=O)CCNCc1ccc(-c2ccc3ncnc(Nc4ccc(OCc5cccc(F)c5)c(Cl)c4)c3c2)o1 [Lapatinib] (partner 2 µM)
Method in brief: as §1

[4] = compound: Cc1ccc(NC(=O)c2ccc(CN3CCN(C)CC3)cc2)cc1Nc1nccc(-c2cccnc2)n1 [Imatinib] + CC1(C)CCC(c2ccc(Cl)cc2)=C(CN2CCN(c3ccc(C(=O)NS(=O)(=O)c4ccc(N[C@H](CCN5CCOCC5)CSc5ccccc5)c(S(=O)(=O)C(F)(F)F)c4)cc3)CC2)C1 [Navitoclax] (partner 0.5 µM)
Method in brief: as §1

Cell Line	relative viability ([1]; first compound 0.02 µM)	relative viability ([1]; first compound 0.2 µM)	relative viability ([1]; first compound 0.6325 µM)	relative viability ([1]; first compound 2 µM)	relative viability ([2]; first compound 0.02 µM)	relative viability ([2]; first compound 0.2 µM)	relative viability ([2]; first compound 0.6325 µM)	relative viability ([2]; first compound 2 µM)	relative viability ([3]; first compound 0.02 µM)	relative viability ([3]; first compound 0.2 µM)	relative viability ([3]; first compound 0.6325 µM)	relative viability ([3]; first compound 2 µM)	relative viability ([4]; first compound 0.02 µM)	relative viability ([4]; first compound 0.2 µM)	relative viability ([4]; first compound 0.6325 µM)	relative viability ([4]; first compound 2 µM)	relative viability ([1]; first compound 0.06325 µM)	relative viability ([2]; first compound 0.06325 µM)	relative viability ([3]; first compound 0.06325 µM)	relative viability ([4]; first compound 0.06325 µM)
NCI-H1793	0.703	0.94	0.716	0.565	0.272	0.332	0.412	0.413	0.841	0.536	0.647	0.831	0.378	0.409	0.362	0.513				
SK-MES-1		1.29		1.09	0.366	0.39	0.357	0.379	0.496	0.505	0.471	0.494	1.41	1.33	1.37	1.44	1.37	0.323	0.512	1.29
NCI-H1651	0.603	0.631	0.547	0.548	0.759	0.698	0.634	0.569	1.02	0.994	0.692	0.87	1.34		1.05	1.13	0.49	0.62	1.06	1.21
LCLC-97TM1	0.798	0.959	0.855	0.767		0.18	0.225	0.164		0.958	0.878	0.734		0.605	0.554	0.399				
LXF-289	0.782	0.798	0.736	0.783	0.929	0.934	0.747	0.804	0.974	0.96	0.905	0.873	0.98	1.08	0.907	0.924		0.711	0.999	0.944
201T	0.996		0.954	0.984	0.711	0.664	0.729	0.679	0.993		0.989	0.989	1.24	1.19	1.2	1.18	0.405			
NCI-H1650	0.605	0.477	0.441	0.452	0.638	0.589	0.574	0.661	0.797	0.845	0.816	0.886	1.39	1.25	1.31	1.13	0.527	0.338	0.489	1.35
NCI-H322M	0.889	0.928	0.775	0.876	0.516	0.561	0.485	0.565	0.613	0.656	0.534	0.63	1.21		1.17	1.13	0.873	0.454	0.61	1.26
NCI-H2405	1.06	1.18	0.942	0.961	0.482	0.428	0.353	0.52	1.05	1.1	0.961	1.15	0.984	0.845	0.706					
